# Measured values published in patent publication US7279314B2, “Chemical substance having morphogenetic and growth-accelerating activities” (Marine Biotechnology Institute Co., Ltd., priority 2002, dated 2007).
# What was measured:
# Monostroma oxyspermum = assay: Minimum effective concentration (MEC) for thallus formation in Monostroma oxyspermum culture; type: cell-based
# Procedure: One ml of modified ASP7 medium was added in the wells of the first row of 48-well microtitre plates (Iwaki, hereafter abbreviated as 48-MTP) and 0.9 ml of modified ASP7 medium was added in the wells of the second and subsequent rows. Eleven μl of the active substance fraction of the target was added individually and mixed well by pipetting in the wells on the first row, followed by adding 100 μl of this mixed solution to the wells on the next row. By repeating this procedures subsequently for 8 to 18 times for each fraction, a ten-fold serial dilution can be prepared in 8 to 18 steps. 100 μl that remained in solution in the wells on the last row was discarded. Here, 100 μl of Monostroma oxyspermum culture medium was diluted subsequently so that the final cell concentration of 10 to 20 cells per 1 ml, was delivered to all wells of 48-MTP to bring the total amount of solution to 1 ml. […] The MEC is used as an index for isolation.
# Similar to the case of Example 1, isolated and purified novel chemical substance 1 was serially diluted in 16 steps starting with the final concentration of 1 μg/ml. At this time, the Monostroma oxyspermum cell number was adjusted to be 20 cells per 1 ml of the medium. Fresh pipet tips were used for each step dilution. Three sets of these series were prepared and were cultivated for 3 days under the same condition as Example 1. […] Based on this, the MEC of the novel chemical substance 1 will be as follows.
# Similar to Example 5, the MEC of the novel chemical substance 1 and its derivatives are measured and the results are shown below.
# [1] = Solubility (physicochemical properties); conditions: for Solubility in hydrated solvent: aqueous methanol or aqueous acetonitrile, percentage range given per compound; for Solubility in less-polar organic solvents: such as hexane or chloroform (Me1H1W4: chloroform and toluene)
# Ulva pertusa = assay: Culturing experiment of Ulva pertusa; type: cell-based; conditions: 1 ng/ml in ASP7 medium, vs control group without addition (FIG. 15)
# Procedure: (§1) Spores obtained from the Ulva pertusa and Enteromorpha intestinalis collected from Miho Shimizu-city, Shizuoka were washed using their phototaxis activity in the ASP7 medium supplemented with the antibiotics, and then were transferred to rectangular petri dishes filled with sterilized covered glasses and aseptized for 5 days. When the free-living cells had attached to the cover glasses and had start growing, each cover glass was placed in each hole of 6-MTP, followed by adding 10 ml of the ASP7 medium not supplemented with antibiotics. For a test group, the novel chemical substance 1 was added to result in 1 ng/ml and for the control group, nothing was added. They were incubtaed for 7 days under the same conditions as in Example 1. […], the cover glasses of the test group and control section were transferred to the culture test tube containing the medium prepared under the same condition to further incubate another 7 days. […] In addition, the ASP7 medium supplemented with antibiotics is an ASP medium, having the following composition and containing 2% antibiotics.
# [2] = Stability of the substances; type: physicochemical
# [3] = test system: Enteromorpha intestinalis; assay: Culturing experiment of Enteromorpha intestinalis; type: cell-based; conditions: 1 ng/ml in ASP7 medium, vs control group without addition (FIG. 16)
# Procedure: as §1
# [4] = thallus formation of Monostroma oxyspermum, measured similar to Example 5
Solubility in hydrated solvent [1],Solubility in less-polar organic solvents [1],Solubility in water [1],Solubility in DMSO ([1]; DMSO),Stability ([2]; general statement),Stability ([2]; substance induced under alkali condition),Solubility in non-polar solvent ([1]; such as hexane),SMILES,MEC (Monostroma oxyspermum; [4]),Development and thallus formation (Ulva pertusa),"MEC (Monostroma oxyspermum; cultivated for 3 days, 20 cells per 1 ml, thallus formation at 12-step ten-fold dilution from 1 μg/ml) [ag/ml]","MEC after 10 days cultivation (Monostroma oxyspermum; cultivated for 10 days, six-step dilution from 1 μg/ml) [pg/mL]","Thallus state (Monostroma oxyspermum; seven-step dilution, final concentration 1×10^−7 μg/ml, cultivated for 10 days (FIG. 13))","Thallus state (Monostroma oxyspermum; six-step dilution, final concentration 1×10^−6 μg/ml, cultivated for 10 days (FIG. 14))",Development and thallus formation [3]
soluble,soluble,hardly soluble,–,–,–,–,CC1(C)CCC[C@]2(C)C3CC(c4ccc(CO)nc4CO)=C(CO)O[C@]3(C)CC[C@@H]12 (stereo partly shown) [Me1H1],No activity,–,–,–,–,–,–
soluble,hardly soluble,hardly soluble,hardly soluble,–,–,–,COC(=O)C1=C(c2ccc(C(=O)OC)nc2C(=O)OC)CC2[C@@](C)(CC[C@H]3C(C)(C)CCC[C@]23C)O1 (stereo partly shown) [Me1],10^−4 μg/ml,–,–,–,–,–,–
–,–,–,–,quite stable,relatively stable,–,CC1(C)CCC[C@]2(C)C3CC(c4ccc(C(=O)O)nc4C(=O)O)=C(C(=O)O)O[C@]3(C)CC[C@@H]12 (stereo partly shown) [Novel Chemical Substance 1],10^−12 μg/ml,normal development and thallus formation were observed,1,1,the disrupted thallus is observed,The thallus was maintained without being collapsed,normal development and thallus formation were observed
soluble,soluble,Poorly soluble,–,–,–,hardly soluble,CC1(C)CCC[C@]2(C)C3C[C@H]4c5ccc(CO)nc5CO[C@@]4(CO)O[C@]3(C)CC[C@@H]12 (stereo partly shown) [Me1H1W4],–,–,–,–,–,–,–
